# Reference: US8785199B2, “Culture medium and method for inducing differentiation into adipocytes” (Fujirebio, Inc, priority 2009, dated 2014)
# Test system: human bone marrow-derived mesenchymal stem cells
# Assay: Differentiation induction of human bone marrow-derived mesenchymal stem cells into adipocytes (oil red O staining, adiponectin ELISA, real-time PCR)
# Assay type: cell-based
# Settings: not given
# Protocol: A serum-free control culture medium (Comparative Example 1) was produced by adding 5 μM of LPA, 1 mM of vitamin C, 100 μM of biotin, and 41.5 nM of progesterone to Dulbecco's modified Eagle's medium (DMEM) containing HEPES (concentration of 25 mM).
# To HEPES-containing DMEM, at the final concentrations, 500 μM of isobutylmethylxanthine (IBMX), 1 μM of dexamethasone, 1 μM of insulin, and 1 μM of rosiglitazone were added to produce an adipocyte differentiation inducing culture medium.
# To the above adipocyte differentiation inducing culture medium, 5 μM of LPA, 1 mM of vitamin C, 100 μM of biotin, and 41.5 nM of progesterone were added to produce a serum-free differentiation inducing culture medium according to the present invention (hereinafter referred to as serum-free differentiation culture medium: Example 1).
# To each of HEPES-containing DMEM and the adipocyte differentiation inducing culture medium, 10% of fetal bovine serum (FBS) was added to produce a conventional culture medium (Comparative Example 2) and a conventional differentiation culture medium (Comparative Example 3).
# Human bone marrow-derived mesenchymal stem cells (strain name: normal human mesenchymal stem cells (Cryo hMSC purchased from LONZA) were seeded in a culture container with a 48-hole culture plate at a cell density of 30,000 cells/cm^2. These culture media were replaced with respective fresh ones every three to four days to culture the cells at 37 degrees C. and 5% CO2 for 7 to 21 days, thereby inducing differentiation into adipocytes.
# The adipocytes were confirmed by oil red 0 staining of lipid droplets accumulated in the cells. Additionally, the oil red O-stained cells were extracted with isopropanol to measure the quantity of lipid accumulated in the cells using an absorption spectrophotometer (wavelength of 492 nm). Then, the quantities of adiponectin secreted from the cells in the three days: Day 4 to Day 7, Day 11 to Day 14, and Day 18 to Day 21 of differentiation induction were confirmed using an adiponectin ELISA kit (Fujirebio Inc). Furthermore, the mRNA expressions of PPAR-gamma and adiponectin were confirmed by real-time PCR. The forward and reverse primers for PPRA-gamma used were […] (SEQ ID NO:1) and tcgcctttgctttggtcag (SEQ ID NO:2), respectively; the forward and reverse primers for adiponectin used were […] (SEQ ID NO:3) and […] (SEQ ID NO:4), respectively; and the forward and reverse primers for GAPDH used were […] (SEQ ID NO:5) and […] (SEQ ID NO:6), respectively.
# As in Example 1, at the final concentrations, 500 μM of IBMX, 1 μM of dexamethasone, 1 μM of insulin, and 1 μM of rosiglitazone were added to HEPES-containing DMEM to produce an adipocyte differentiation inducing culture medium. To the adipocyte differentiation inducing basal medium, 5 μM of LPA, 1 mM of vitamin C, […], and 41.5 nM of progesterone were added to produce a serum-free differentiation culture medium according to the present invention (Example 2). On the other hand, for comparison, there were also prepared a culture medium without LPA alone (Comparative Example 4), a culture medium without vitamin C alone (Comparative Example 5), a culture medium without biotin alone (Comparative Example 6), and a culture medium without progesterone alone (Comparative Example 7).
# To DMEM not containing HEPES, at the final concentrations, 500 μM of IBMX, 1 μM of dexamethasone, 1 μM of insulin, and 1 μM of rosiglitazone were added to produce an adipocyte differentiation inducing culture medium 2. To the adipocyte differentiation inducing basal medium 2, 5 μM of LPA, 1 mM of vitamin C, 100 μM of biotin, and 41.5 nM of progesterone were added to produce a serum-free differentiation culture medium 2 (Comparative Example 8).
# As in Example 1, human bone marrow-derived mesenchymal stem cells were seeded in the wells of a 48-hole culture plate at the cell density of 30,000 cells/cm^2. […]
row,Compound,effect on the quantity of lipid droplets in adipocytes when added to the culture medium
1,CC(=O)[C@H]1CC[C@H]2[C@@H]3CCC4=CC(=O)CC[C@]4(C)[C@H]3CC[C@]12C [progesterone],increasing the quantity of lipid droplets in adipocytes

# Same assay, conditions: component left out of the serum-free differentiation culture medium; 21 days; FIG. 4
row,Compound,necessity of the component for inducing differentiation into adipocytes
1,1-oleoyl lysophosphatidic acid sodium [LPA],necessary
2,CC(=O)[C@H]1CC[C@H]2[C@@H]3CCC4=CC(=O)CC[C@]4(C)[C@H]3CC[C@]12C [progesterone],not essential
3,"O=S(=O)(O)CCN1CCN(CCO)CC1 [HEPES, 2-[4-(2-hydroxyethyl)-1-piperazinyl]ethanesulfonic acid]",necessary
4,O=C(O)CCCC[C@@H]1SC[C@@H]2NC(=O)N[C@@H]21 [biotin],necessary
5,O=C1O[C@H]([C@@H](O)CO)C(O)=C1O [vitamin C],necessary
